# From patent US20160044914A1, “BIOCIDE COMPOSITIONS, METHODS OF MANUFACTURE, AND METHODS OF USE” (SEGETIS, INC., priority 2013, published 2016)
# “Also recorded” adds a separate entry of the source.
# How the values were obtained:
# [1] = Approximate solubility of technical grade active ingredients in the adjuvant solvents (shaker, iterative approach); conditions: for solubility in the three solvents, in words: Solvents I, II and III taken together
# Experimental: Solubility studies were conducted using three materials to determine their ability to dissolve various biocide active ingredients: Solvent I-formula 1(a); Solvent II-formula 1(b); and Solvent III-formula 3(a). Active ingredients were chosen from three classes of biocides and primarily reflected difficult to dissolve actives. The following biocides were evaluated.
# The approximate solubility of each technical grade active ingredient was determined in each of the solvents.
# All examples were conducted on a 100 gram or 50 gram scale. The Dimethoate, 2,4-D, mesotrione and halosulfuron examples were conducted at 50 gram scale. All other examples were conducted on a 100 gram scale.
# An amount of solvent was weighed into a 4 ounce jar (or 2 oz). An amount of active ingredient was weighed and added to the solvent in the jar. The jar was capped tightly and placed on a New Brunswick Scientific model C1 platform shaker. The samples were shaken at the 75% setting for 1 hour. During the mixing and after 1 hour each sample was examined and completeness of solubility noted. Using an iterative approach, an approximate solubility for each active ingredient in each of the solvents was determined. Each sample was allowed to sit undisturbed for 1 hour after mixing to determine if any crystallization would occur in those samples which dissolved.
# [2] = cited from earlier work
# [3] = Solvent I (formula 1(a)), % solids by weight, shaken 1 hour, minimum concentration tested 2.5%
# [4] = Solvent II (formula 1(b)), % solids by weight, shaken 1 hour, minimum concentration tested 2.5%
# [5] = Solvent III (formula 3(a)), % solids by weight, shaken 1 hour, minimum concentration tested 2.5%
SMILES,"approximate solubility range in Solvent I [1, 3]","solubility in the three solvents, in words [1]",approximate solubility range in Solvent I ([1]; 1 h),approximate solubility range in Solvent II ([1]; 1 h),approximate solubility range in Solvent III ([1]; 1 h),"approximate solubility range in Solvent II [1, 4]",also measured
COc1c(Cl)ccc(Cl)c1C(=O)O [Dicamba],<10%,greatest solubility; also recorded: did dissolve,,,,,
COc1cc(OC)nc(NC(=O)NS(=O)(=O)c2c(C(=O)O)c(Cl)nn2C)n1 [Halosulfuron],,,<2.5%,<2.5%,>2.5%; <5%,,
CS(=O)(=O)c1ccc(C(=O)C2C(=O)CCCC2=O)c([N+](=O)[O-])c1 [Mesotrione],<2.5%,,,,,<2.5%,"solubility in Solvent III, in words ([1]; Solvent III): soluble; solubility in acetonitrile and acetone ([2]; acetonitrile and acetone): limited solubility"
CC1(C)[C@H](C(=O)O[C@H](C#N)c2cccc(Oc3ccccc3)c2)[C@@H]1/C=C(\Cl)C(F)(F)F [Gamma cyhalothrin],>80%,greatest solubility,,,,>80%,"approximate solubility range in Solvent III [1, 5]: >80%"
COCC(=O)N(c1c(C)cccc1C)C(C)C(=O)OC (stereo not drawn) [Metalaxyl],,greatest solubility,,,,,
"O=C(O)COc1ccc(Cl)cc1Cl [2,4-D]",,did dissolve,,,,,
CCOC(=O)CCC(C)=O [Solvent III],,,,,,,"solvating properties compared among the three solvents ([1]; in all but one active ingredient, for those active ingredients which were soluble): best solvating properties"
OC(Cn1cncn1)(c1ccc(F)cc1)c1ccccc1F (stereo not drawn) [Flutrifol],,,>2.5%; <5%,>2.5%; <5%,>5%; <20%,,
O=C(O)CNCP(=O)(O)O [Glyphosate],<2.5%,not very soluble,,,,<2.5%,"approximate solubility range in Solvent III [1, 5]: <2.5%; solubility in most solvents, including water ([2]; most solvents, including water): not soluble to any great extent"
CS(=O)(=O)NC(=O)c1cc(Oc2ccc(C(F)(F)F)cc2Cl)ccc1[N+](=O)[O-] [Fomesafen],,,<2.5%,>2.5%; <10%,>5%; <10%,,
